Results from patent publication US20110294778A1, “HEPATITIS C INHIBITOR COMPOUNDS” (priority 2009, published 2011).
Where two headings read alike, the source gives them in different places.

Assays:
[1] = test system: HCV genotype 1b (Con-1) subgenomic replicon with NS3 resistance mutation D168V in Huh-7 cells; experiment: HCV replicon RNA replication assay (NS3 protease variants), genotype 1b D168V; type: cell-based; conditions: Hepatitis C virus
[2] = test system: HCV genotype 1a (strain H77) subgenomic replicon with NS3 resistance mutation R155K in Huh-7 cells; experiment: HCV replicon RNA replication assay (NS3 protease variants), genotype 1a R155K; type: cell-based; conditions: Hepatitis C virus
[3] = Huh-7, 72 h, read-out: D168V 1b EC50 (nM)
[4] = Huh-7, 72 h, read-out: R155K 1a EC50 (nM)

SMILES | EC50 [1, 3] [nM] | EC50 [2, 4] [nM] | EC50 ([1]; Huh-7, read-out: D168V 1b Ec50 (nM)) [nM] | EC50 ([2]; Huh-7, read-out: R155K 1a Ec50 (nM)) [nM]
COc1ccc2c(O[C@@H]3C[C@H]4C(=O)N[C@]5(C(=O)NS(=O)(=O)C6CC6)C[C@H]5/C=C\CCCCC[C@H](NC(=O)c5cnn(C)n5)C(=O)N4C3)cc(OC(C)C)nc2c1C [Compound 1013, (2R,6S,12Z,13aS,14aR,16aS)-N-(cyclopropylsulfonyl)-2-{[7-methoxy-8-methyl-2-(propan-2-yloxy)quinolin-4-yl]oxy}-6-{[(2-methyl-2H-1,2,3-triazol-4-yl)carbonyl]amino}-5,16-dioxo-1,2,3,6,7,8,9,10,11,13a,14,15,16,16a-tetradecahydrocyclopropa[e]pyrrolo[1,2-a][1,4]diazacyclopentadecine-14a(5H)-carboxamide] | 0.52 | 7.8 | – | –
COc1ccc2c(O[C@@H]3C[C@H]4C(=O)N[C@]5(C(=O)NS(=O)(=O)C6CC6)C[C@H]5/C=C\CCCCC[C@H](NC(=O)N5CC(C)(C)C5)C(=O)N4C3)cc(OC(C)C)nc2c1C [Compound 2011, (2R,6S,12Z,13aS,14aR,16aS)-N-(cyclopropylsulfonyl)-6-{[(3,3-dimethylazetidin-1-yl)carbonyl]amino}-2-{[7-methoxy-8-methyl-2-(propan-2-yloxy)quinolin-4-yl]oxy}-5,16-dioxo-1,2,3,6,7,8,9,10,11,13a,14,15,16,16a-tetradecahydrocyclopropa[e]pyrrolo[1,2-a][1,4]diazacyclopentadecine-14a(5H)-carboxamide] | 3.9 | 6.1 | – | –
COc1ccc2c(O[C@@H]3C[C@H]4C(=O)N[C@]5(C(=O)NS(=O)(=O)C6(C)CC6)C[C@H]5/C=C\CCCCC[C@H](NC(=O)N5CCC5)C(=O)N4C3)cc(OC3CC3)nc2c1C [Compound 2010, (2R,6S,12Z,13aS,14aR,16aS)-6-[(azetidin-1-ylcarbonyl)amino]-2-{[2-(cyclopropyloxy)-7-methoxy-8-methylquinolin-4-yl]oxy}-N-[(1-methylcyclopropyl)sulfonyl]-5,16-dioxo-1,2,3,6,7,8,9,10,11,13a,14,15,16,16a-tetradecahydrocyclopropa[e]pyrrolo[1,2-a][1,4]diazacyclopentadecine-14a(5H)-carboxamide] | 0.66 | 6.4 | – | –
COc1ccc2c(O[C@@H]3C[C@H]4C(=O)N[C@]5(C(=O)NS(=O)(=O)C6(C)CC6)C[C@H]5/C=C\CCCCC[C@H](NC(=O)N5CCC(F)(F)C5)C(=O)N4C3)cc(OC(C)C)nc2c1C [Compound 2004, (2R,6S,12Z,13aS,14aR,16aS)-6-{[(3,3-difluoropyrrolidin-1-yl)carbonyl]amino}-2-{[7-methoxy-8-methyl-2-(propan-2-yloxy)quinolin-4-yl]oxy}-N-[(1-methylcyclopropyl)sulfonyl]-5,16-dioxo-1,2,3,6,7,8,9,10,11,13a,14,15,16,16a-tetradecahydrocyclopropa[e]pyrrolo[1,2-a][1,4]diazacyclopentadecine-14a(5H)-carboxamide] | 1.6 | 8.2 | – | –
COc1ccc2c(O[C@@H]3C[C@H]4C(=O)N[C@]5(C(=O)NS(=O)(=O)C6CC6)C[C@H]5/C=C\CCCCC[C@H](NC(=O)c5ccn(C)n5)C(=O)N4C3)cc(OC(C)C)nc2c1C [Compound 1003, (2R,6S,12Z,13aS,14aR,16aS)-N-(cyclopropylsulfonyl)-2-{[7-methoxy-8-methyl-2-(propan-2-yloxy)quinolin-4-yl]oxy}-6-{[(1-methyl-1H-pyrazol-3-yl)carbonyl]amino}-5,16-dioxo-1,2,3,6,7,8,9,10,11,13a,14,15,16,16a-tetradecahydrocyclopropa[e]pyrrolo[1,2-a][1,4]diazacyclopentadecine-14a(5H)-carboxamide] | 0.29 | 4.3 | – | –
COc1ccc2c(O[C@@H]3C[C@H]4C(=O)N[C@]5(C(=O)NS(=O)(=O)C6(C)CC6)C[C@H]5/C=C\CCCCC[C@H](NC(=O)c5ccn(C(C)C)n5)C(=O)N4C3)cc(OC(C)C)nc2c1C [Compound 1021, (2R,6S,12Z,13aS,14aR,16aS)-2-{[7-methoxy-8-methyl-2-(propan-2-yloxy)quinolin-4-yl]oxy}-N-[(1-methylcyclopropyl)sulfonyl]-5,16-dioxo-6-({[1-(propan-2-yl)-1H-pyrazol-3-yl]carbonyl}amino)-1,2,3,6,7,8,9,10,11,13a,14,15,16,16a-tetradecahydrocyclopropa[e]pyrrolo[1,2-a][1,4]diazacyclopentadecine-14a(5H)-carboxamide] | 0.24 | 4.3 | – | –
CCOc1cc(O[C@@H]2C[C@H]3C(=O)N[C@]4(C(=O)NS(=O)(=O)C5(C)CC5)C[C@H]4/C=C\CCCCC[C@H](NC(=O)N(C)C)C(=O)N3C2)c2ccc(OC)c(Br)c2n1 [Compound 2019, (2R,6S,12Z,13aS,14aR,16aS)-2-[(8-bromo-2-ethoxy-7-methoxyquinolin-4-yl)oxy]-6-[(dimethylcarbamoyl)amino]-N-[(1-methylcyclopropyl)sulfonyl]-5,16-dioxo-1,2,3,6,7,8,9,10,11,13a,14,15,16,16a-tetradecahydrocyclopropa[e]pyrrolo[1,2-a][1,4]diazacyclopentadecine-14a(5H)-carboxamide] | 1.4 | 5.2 | – | –
COCCn1ccc(C(=O)N[C@H]2CCCCC/C=C\[C@@H]3C[C@@]3(C(=O)NS(=O)(=O)C3CC3)NC(=O)[C@@H]3C[C@@H](Oc4cc(OC(C)C)nc5c(C)c(OC)ccc45)CN3C2=O)n1 [Compound 1006, (2R,6S,12Z,13aS,14aR,16aS)-N-(cyclopropylsulfonyl)-6-({[1-(2-methoxyethyl)-1H-pyrazol-3-yl]carbonyl}amino)-2-{[7-methoxy-8-methyl-2-(propan-2-yloxy)quinolin-4-yl]oxy}-5,16-dioxo-1,2,3,6,7,8,9,10,11,13a,14,15,16,16a-tetradecahydrocyclopropa[e]pyrrolo[1,2-a][1,4]diazacyclopentadecine-14a(5H)-carboxamide] | 0.33 | 7 | – | –
Cc1c(O)ccc2c(O[C@@H]3C[C@H]4C(=O)N[C@]5(C(=O)NS(=O)(=O)C6(C)CC6)C[C@H]5/C=C\CCCCC[C@H](NC(=O)N(C)C)C(=O)N4C3)cc(OC(C)C)nc12 [Compound 2022, (2R,6S,12Z,13aS,14aR,16aS)-6-[(dimethylcarbamoyl)amino]-2-{[7-hydroxy-8-methyl-2-(propan-2-yloxy)quinolin-4-yl]oxy}-N-[(1-methylcyclopropyl)sulfonyl]-5,16-dioxo-1,2,3,6,7,8,9,10,11,13a,14,15,16,16a-tetradecahydrocyclopropa[e]pyrrolo[1,2-a][1,4]diazacyclopentadecine-14a(5H)-carboxamide] | 1.8 | 4.9 | – | –
COc1ccc2c(O[C@@H]3C[C@H]4C(=O)N[C@]5(C(=O)NS(=O)(=O)C6(C)CC6)C[C@H]5/C=C\CCCCC[C@H](NC(=O)N(C)C)C(=O)N4C3)cc(OC(C)C)nc2c1Br [Compound 2016, (2R,6S,12Z,13aS,14aR,16aS)-2-{[8-bromo-7-methoxy-2-(propan-2-yloxy)quinolin-4-yl]oxy}-6-[(dimethylcarbamoyl)amino]-N-[(1-methylcyclopropyl)sulfonyl]-5,16-dioxo-1,2,3,6,7,8,9,10,11,13a,14,15,16,16a-tetradecahydrocyclopropa[e]pyrrolo[1,2-a][1,4]diazacyclopentadecine-14a(5H)-carboxamide] | 1 | 2 | – | –
CC[C@@H]1C[C@]1(NC(=O)[C@@H]1C[C@@H]2CN1C(=O)[C@H](C(C)(C)C)NC(=O)OCC(C)(C)CCCCc1cccc3c1CN(C3)C(=O)O2)C(=O)NS(=O)(=O)C1CC1 [reference compound] | – | – | 4400 | 1200
CCOc1cc(O[C@@H]2C[C@H]3C(=O)N[C@]4(C(=O)NS(=O)(=O)C5CC5)C[C@H]4/C=C\CCCCC[C@H](NC(=O)c4ccc(C)s4)C(=O)N3C2)c2ccc(OC)c(Br)c2n1 [Compound 1025, (2R,6S,12Z,13aS,14aR,16aS)-2-[(8-bromo-2-ethoxy-7-methoxyquinolin-4-yl)oxy]-N-(cyclopropylsulfonyl)-6-{[(5-methylthiophen-2-yl)carbonyl]amino}-5,16-dioxo-1,2,3,6,7,8,9,10,11,13a,14,15,16,16a-tetradecahydrocyclopropa[e]pyrrolo[1,2-a][1,4]diazacyclopentadecine-14a(5H)-carboxamide] | 0.32 | 4.1 | – | –
CCOc1cc(O[C@@H]2C[C@H]3C(=O)N[C@]4(C(=O)NS(=O)(=O)C5CC5)C[C@H]4/C=C\CCCCC[C@H](NC(=O)c4ccc(COC)s4)C(=O)N3C2)c2ccc(OC)c(C)c2n1 [Compound 1014, (2R,6S,12Z,13aS,14aR,16aS)-N-(cyclopropylsulfonyl)-2-[(2-ethoxy-7-methoxy-8-methylquinolin-4-yl)oxy]-6-({[5-(methoxymethyl)thiophen-2-yl]carbonyl}amino)-5,16-dioxo-1,2,3,6,7,8,9,10,11,13a,14,15,16,16a-tetradecahydrocyclopropa[e]pyrrolo[1,2-a][1,4]diazacyclopentadecine-14a(5H)-carboxamide] | 0.31 | 8.3 | – | –
COc1ccc2c(O[C@@H]3C[C@H]4C(=O)N[C@]5(C(=O)NS(=O)(=O)C6(C)CC6)C[C@H]5/C=C\CCCCC[C@H](NC(=O)c5ccn(C)n5)C(=O)N4C3)cc(OC3CCC3)nc2c1C [Compound 1022, (2R,6S,12Z,13aS,14aR,16aS)-2-{[2-(cyclobutyloxy)-7-methoxy-8-methylquinolin-4-yl]oxy}-N-[(1-methylcyclopropyl)sulfonyl]-6-{[(1-methyl-1H-pyrazol-3-yl)carbonyl]amino}-5,16-dioxo-1,2,3,6,7,8,9,10,11,13a,14,15,16,16a-tetradecahydrocyclopropa[e]pyrrolo[1,2-a][1,4]diazacyclopentadecine-14a(5H)-carboxamide] | 0.24 | 6.8 | – | –
